Assay results as given in ChEMBL document CHEMBL3217710, “Antimalarial peroxides: advances in drug discovery and design” (Medchemcomm, 2012).

Experiments:
Plasmodium falciparum [1] = test: Antimalarial activity against multi-drug resistant Plasmodium falciparum; type: functional, organism-based
Plasmodium berghei [2] = test: Antimalarial activity against Plasmodium berghei infected in sc dosed mouse; type: functional, organism-based
[3] = Octanol-water partition coefficient, log P of the compound at pH 7.4; type: physicochemical
[4] = Half life of the compound in HCl solution at pH 1; type: physicochemical
Plasmodium falciparum [5] = test: Antimalarial activity against Plasmodium falciparum; type: functional, organism-based
[6] = Oral bioavailability in rat at 50 mg/kg; type: ADME, organism-based; conditions: in vivo
Plasmodium falciparum [7] = test: Antimalarial activity against chloroquine-resistant Plasmodium falciparum K1; type: functional, organism-based
Plasmodium falciparum [8] = test: Antimalarial activity against chloroquine-sensitive Plasmodium falciparum FCR-3; type: functional; conditions: FCR-3/Gambia
Plasmodium falciparum [9] = test: Antimalarial activity against chloroquine-resistant Plasmodium falciparum; type: functional, organism-based
Plasmodium falciparum [10] = test: Antimalarial activity against chloroquine-sensitive Plasmodium falciparum; type: functional, organism-based
Plasmodium yoelii = test: Antimalarial activity against chloroquine-resistant Plasmodium yoelii infected in po dosed mouse; type: functional
[11] = Drug degradation at 40 degC after 1 month; type: physicochemical; conditions: read-out: Drug degradation
[12] = Drug degradation at 40 degC after 3 months; type: physicochemical; conditions: read-out: Drug degradation
Plasmodium falciparum [13] = test: Antimalarial activity against chloroquine-sensitive Plasmodium falciparum at 4.6 nM relative to control; type: functional
Plasmodium falciparum [14] = test: Antimalarial activity against chloroquine-sensitive Plasmodium falciparum at 1.4 nM relative to control; type: functional
Plasmodium berghei [15] = test: Antimalarial activity against chloroquine-sensitive Plasmodium berghei infected in mouse; type: functional
Plasmodium falciparum [16] = test: Antimalarial activity against chloroquine-sensitive Plasmodium falciparum at 5.2 nM relative to control; type: functional
Plasmodium falciparum [17] = test: Antimalarial activity against chloroquine-sensitive Plasmodium falciparum NF54; type: functional, organism-based
[18] = Half life in human infected with Plasmodium; conditions: in vivo
[19] = Therapeutic index, ratio of compound activity in mouse assessed as body weight gain to compound activity against Plasmodium berghei infected in mouse; type: organism-based; conditions: in vivo, read-out: TI
Plasmodium vinckei [20] = test: Antimalarial activity against Plasmodium vinckei infected in po dosed mouse assessed as decrease in parasitemia by peters four day suppressive test; type: functional; conditions: 96 h
Plasmodium vinckei [21] = test: Antimalarial activity against Plasmodium vinckei infected in ip dosed mouse assessed as decrease in parasitemia by peters four day suppressive test; type: functional; conditions: 96 h
[22] = Half life in simulated stomach acid; type: ADME

SMILES: C[C@H]1[C@H](N2CCS(=O)(=O)CC2)O[C@@H]2O[C@@]3(C)CC[C@H]4[C@H](C)CC[C@@H]1[C@@]24OO3 [ARTEMIFONE]
- EC50 (Plasmodium falciparum [1]): 0.14 nM
- ED90 (Plasmodium berghei [2]; sc): 1.5 mg/kg
- logD [3]: 2.49

SMILES: C[C@@H]1CC[C@H]2[C@@H](C)[C@](O)(C(F)(F)F)O[C@@H]3O[C@@]4(C)CC[C@@H]1[C@]32OO4
- half-life [4]: 31.7 days
- IC50 (Plasmodium falciparum [5]): 9.4 nM
- bioavailability [6]: 28%

SMILES: COC1(c2ccc(S(C)(=O)=O)cc2)C=CC2(CCCCCC2)OO1 (stereo not drawn)
- IC50 (Plasmodium berghei [2]): 31 nM

SMILES: Cc1ccc(C2=C[C@H]3OC4(CCCC4)OO[C@@]3(c3ccc(C)cc3)C2)cc1
- IC50 (Plasmodium falciparum [7]): < 5 nM

SMILES: OCCCCCCC1COOC2(CCCCCCCCCCC2)OOC1
- EC50 (Plasmodium falciparum [8]): 2.3 nM

SMILES: C=C(C)[C@@H]1OO[C@]2(O[C@H]1C1CC1)[C@H]1CC3C[C@@H](C1)C[C@H]2C3
- IC50 (Plasmodium falciparum [7]): < 5 nM

SMILES: Fc1ccc(C2=C[C@H]3OC4(CCOCC4)OO[C@@]3(c3ccc(F)cc3)C2)cc1
- IC50 (Plasmodium falciparum [7]): < 5 nM

SMILES: CC1CCC2CC1OO[C@]2(C)/C=C/[C@H](O)C(C)(C)O (stereo partly drawn)
- IC50 (Plasmodium falciparum [7]): 115 nM

SMILES: C[C@@H]1CC[C@H]2[C@@H](C)C(Oc3ccc(F)cc3)O[C@@H]3O[C@@]4(C)CC[C@@H]1[C@]32OO4 (stereo partly drawn)
- IC50 (Plasmodium falciparum [9]): 5.3 nM
- IC50 (Plasmodium falciparum [10]): 3.9 nM

SMILES: C[C@@H]1CC[C@H]2[C@@H](C)C(Oc3ccccc3)O[C@@H]3O[C@@]4(C)CC[C@@H]1[C@]32OO4 (stereo partly drawn)
- IC50 (Plasmodium falciparum [9]): 5.3 nM
- IC50 (Plasmodium falciparum [10]): 3.9 nM

SMILES: C[C@H]1[C@@H](CCN2CCN(c3cccc(C(F)(F)F)c3)CC2)O[C@@H]2O[C@]3(C)CC[C@H]4[C@H](C)CC[C@@H]1[C@@]24OO3
- ED50 (Plasmodium yoelii): 3.1 mg/kg

SMILES: CC1(C)COC2(CCC(NC3CCC(Nc4ccnc5cc(Cl)ccc45)CC3)CC2)OO1 (stereo not drawn)
- IC50 (Plasmodium falciparum [9]): 7 nM
- IC50 (Plasmodium falciparum [10]): 7 nM

SMILES: C[C@H]1[C@@H](O)O[C@@H]2O[C@@]3(C)CC[C@H]4[C@H](C)CC[C@@H]1[C@@]24OO3 [ARTENIMOL]
- degraded at 730.5 h [11]: 2%
- degraded at 2191.5 h [12]: 2.9%

SMILES: C[C@@H]1CC[C@H]2[C@@H](C)C(Oc3ccc(C(F)(F)F)cc3)O[C@@H]3O[C@@]4(C)CC[C@@H]1[C@]32OO4 (stereo partly drawn)
- IC50 (Plasmodium falciparum [9]): 5.3 nM
- IC50 (Plasmodium falciparum [10]): 3.9 nM

SMILES: CC1CCC2CC1OO[C@]2(C)/C=C/[C@@H](O)C(C)(C)O (stereo partly drawn)
- IC50 (Plasmodium falciparum [7]): 56 nM

SMILES: C1CCCCCC2(CCCCC1)OOCCCCCOO2
- EC50 (Plasmodium falciparum [8]): 1 nM

SMILES: C[C@H]1[C@@H](CCN2CCN(c3ccccc3)CC2)O[C@@H]2O[C@]3(C)CC[C@H]4[C@H](C)CC[C@@H]1[C@@]24OO3
- ED50 (Plasmodium yoelii): < 10 mg/kg

SMILES: C[C@H]1[C@H](N2CCSCC2)O[C@@H]2O[C@@]3(C)CC[C@H]4[C@H](C)CC[C@@H]1[C@@]24OO3 [ARTEMISIDE]
- logD [3]: 4.97

SMILES: C[C@H]1[C@@H](CCN2CCN(c3ccc([N+](=O)[O-])cc3)CC2)O[C@@H]2O[C@]3(C)CC[C@H]4[C@H](C)CC[C@@H]1[C@@]24OO3
- ED50 (Plasmodium yoelii): < 10 mg/kg

SMILES: C=C(C)[C@@H]1OO[C@]2(O[C@H]1CCC)[C@H]1CC3C[C@@H](C1)C[C@H]2C3
- IC50 (Plasmodium falciparum [7]): < 5 nM

SMILES: COc1ccc(OC2O[C@@H]3O[C@@]4(C)CC[C@H]5[C@H](C)CC[C@@H]([C@H]2C)[C@@]35OO4)cc1 (stereo partly drawn)
- IC50 (Plasmodium falciparum [9]): 5.3 nM
- IC50 (Plasmodium falciparum [10]): 3.9 nM

SMILES: C[C@H]1[C@H](c2cccn2C)O[C@@H]2O[C@@]3(C)CC[C@H]4[C@H](C)CC[C@@H]1[C@@]24OO3
- inhibition at 0.0046 µM (Plasmodium falciparum [13]): 50%

SMILES: C[C@H]1[C@H](OC(=O)CCC(=O)O)O[C@@H]2O[C@@]3(C)CC[C@H]4[C@H](C)CC[C@@H]1[C@@]24OO3 [SODIUM ARESUNATE]
- EC50 (Plasmodium falciparum [1]): 0.73 nM

SMILES: C[C@H]1[C@H](c2ccco2)O[C@@H]2O[C@@]3(C)CC[C@H]4[C@H](C)CC[C@@H]1[C@@]24OO3
- inhibition at 0.0014 µM (Plasmodium falciparum [14]): 50%

SMILES: CCO[C@@]1(C(F)(F)F)O[C@@H]2O[C@@]3(C)CC[C@H]4[C@H](C)CC[C@@H]([C@H]1C)[C@@]24OO3
- half-life [4]: 20.8 days
- IC50 (Plasmodium falciparum [5]): 3.3 nM

SMILES: C[C@H]1[C@H](N2CC[S+]([O-])CC2)O[C@@H]2O[C@@]3(C)CC[C@H]4[C@H](C)CC[C@@H]1[C@@]24OO3
- logD [3]: 2.63

SMILES: C[C@@H]1CC[C@H]2[C@@H](C)C(Oc3ccc(Cl)cc3)O[C@@H]3O[C@@]4(C)CC[C@@H]1[C@]32OO4 (stereo partly drawn)
- IC50 (Plasmodium falciparum [9]): 5.3 nM
- IC50 (Plasmodium falciparum [10]): 3.9 nM

SMILES: Clc1ccc2c(NCCNC3CCC4(CC3)OOC3(c5ccccc5)CC(c5ccccc5)=CC3O4)ccnc2c1 (stereo not drawn)
- IC50 (Plasmodium falciparum [9]): 20 nM
- IC50 (Plasmodium falciparum [10]): 7 nM

SMILES: C[C@H]1[C@@H](Oc2ccc(C(F)(F)F)cc2)O[C@@H]2O[C@]3(C)CC[C@H]4[C@H](C)CC[C@@H]1[C@@]24OO3
- ED50 (Plasmodium berghei [15]): 2.1 mg/kg

SMILES: C[C@H]1[C@H](N2CCOCC2)O[C@@H]2O[C@@]3(C)CC[C@H]4[C@H](C)CC[C@@H]1[C@@]24OO3
- logD [3]: 3.05

SMILES: Cc1ccc([C@@H]2O[C@@H]3O[C@@]4(C)CC[C@H]5[C@H](C)CC[C@@H]([C@H]2C)[C@@]35OO4)o1
- inhibition at 0.0052 µM (Plasmodium falciparum [16]): 50%

SMILES: C[C@@H]1CC[C@H]2[C@@H](C)C(=O)O[C@@H]3O[C@@]4(C)CC[C@@H]1[C@]32OO4 [ARTEMISININ]
- IC50 (Plasmodium falciparum [17]): 8.9 nM
- half-life [18]: 0.0833 days
- IC50 (Plasmodium falciparum [7]): 2.8 nM

SMILES: C[C@H]1[C@@H](CC(C[C@H]2O[C@@H]3O[C@@]4(C)CC[C@H]5[C@H](C)CC[C@@H]([C@H]2C)[C@@]35OO4)C(=O)O)O[C@@H]2O[C@@]3(C)CC[C@H]4[C@H](C)CC[C@@H]1[C@@]24OO3 (stereo partly drawn)
- selectivity ratio [19]: 167

SMILES: Fc1ccc(C2=C[C@H]3OC4(CCCC4)OO[C@@]3(c3ccc(F)cc3)C2)cc1
- IC50 (Plasmodium falciparum [7]): < 5 nM

SMILES: Cc1ccc(OC2O[C@@H]3O[C@@]4(C)CC[C@H]5[C@H](C)CC[C@@H]([C@H]2C)[C@@]35OO4)cc1 (stereo partly drawn)
- IC50 (Plasmodium falciparum [9]): 5.3 nM
- IC50 (Plasmodium falciparum [10]): 3.9 nM

SMILES: C[C@@H]1CC[C@H]2[C@@H](C)C(Oc3ccc(-c4cccc5ccccc45)cc3)O[C@@H]3O[C@@]4(C)CC[C@@H]1[C@]32OO4 (stereo partly drawn)
- IC50 (Plasmodium falciparum [9]): 5.3 nM
- IC50 (Plasmodium falciparum [10]): 3.9 nM

SMILES: C1CCCCCC2(CCCCC1)OOCCCOO2
- EC50 (Plasmodium falciparum [8]): 2.5 nM

SMILES: CC(=O)OC1(C)CCC2CC1OO[C@]2(/C=C\c1ccc(F)cc1)c1ccccc1 (stereo partly drawn)
- IC50 (Plasmodium falciparum [7]): 29 nM

SMILES: CO[C@H]1O[C@@H]2O[C@@]3(C)CC[C@H]4[C@H](C)CC[C@@H]([C@H]1C)[C@@]24OO3 [ARTEMETHER]
- ED50 (Plasmodium yoelii): 6 mg/kg
- logD [3]: 4

SMILES: CC(=O)OC1(C)CCC2CC1OO[C@]2(/C=C\c1ccc(Cl)cc1)c1ccccc1 (stereo partly drawn)
- IC50 (Plasmodium falciparum [7]): 23 nM

SMILES: C[C@H]1[C@@H](CCN2CCN(c3ccc(F)cc3)CC2)O[C@@H]2O[C@]3(C)CC[C@H]4[C@H](C)CC[C@@H]1[C@@]24OO3
- ED50 (Plasmodium yoelii): < 10 mg/kg

SMILES: CC(C)C1=C[C@H]2OC3(CCC(NCCNc4ccnc5cc(Cl)ccc45)CC3)OO[C@@]2(C)CC1.O=C(O)CC(O)(CC(=O)O)C(=O)O (stereo partly drawn)
- ED50 (Plasmodium vinckei [20]): 18 mg/kg
- IC50 (Plasmodium falciparum [9]): 5 nM
- ED50 (Plasmodium vinckei [21]): 5 mg/kg
- IC50 (Plasmodium falciparum [10]): 4 nM

SMILES: CO[C@@]1(C(F)(F)F)O[C@@H]2O[C@@]3(C)CC[C@H]4[C@H](C)CC[C@@H]([C@H]1C)[C@@]24OO3
- half-life [4]: 27.5 days
- IC50 (Plasmodium falciparum [5]): 0.8 nM

SMILES: C[C@H]1[C@@H](CCc2ccc(C(=O)O)cc2)O[C@@H]2O[C@]3(C)CC[C@H]4[C@H](C)CC[C@@H]1[C@@]24OO3
- half-life [22]: 0.546 days

SMILES: C[C@H]1[C@@H](OCc2ccc(C(=O)[O-])cc2)O[C@@H]2O[C@]3(C)CC[C@H]4[C@H](C)CC[C@@H]1[C@@]24OO3.[Na+] [SODIUMARTELINATE]
- half-life [22]: 10.8 days

SMILES: C[C@@H]1CC[C@H]2[C@@H](C)[C@](OC(=O)CCC(=O)O)(C(F)(F)F)O[C@@H]3O[C@@]4(C)CC[C@@H]1[C@]32OO4
- IC50 (Plasmodium falciparum [5]): 4.1 nM
